Our source for the EC50 values is patent US12595262B2, “PRMT5 inhibitors” (MERCK SHARP & DOHME LLC, priority 2019, dated 2026).

Assay [1] deals with T1, PRMT5-MEP50 enzyme complex (Homo sapiens, UniProt O14744).
T1 construct: 1.25 nM of Full-length (FL)-PRMT5-MEP50 enzyme complex; made in house; host or cells: baculovirus-transfected Sf21 cells
In words: PRMT5-MEP50 Enzyme Methylation Assay. Format: biochemical. Particulars: recombinant full-length PRMT5-MEP50 1.0 nM, 75 nM biotinylated H4R3(Me1) peptide, 15 μM SAM; 60 minutes pre-incubation, 150 minutes at 37° C. As for the experimental part:
PRMT5-MEP50 Enzyme Methylation Assay
PRMT5-MEP50 biochemical assay is a direct measurement of the methylation activity of the enzyme complex on a short peptide substrate derived from the N-terminus of H4 histone. Methylation experiment was performed with recombinant PRMT5-MEP50 protein complex. The assessment of inhibitory effect of small molecules was measured by the effectiveness of the compounds to inhibit this reaction (EC50).
In this assay, the potency (EC50) of each compound was determined from a twenty-point (1:2 serial dilution; top compound concentration of 100000 nM) titration curve using the following outlined procedure. To each well of a white ProxiPlus 384 well-plate, 100 nL of compound (1% DMSO in final assay volume of 10 μL) was dispensed, followed by the addition of 8 μL of 1× assay buffer (50 mM Bicine pH 8.0, 1 mM DTT, 0.004% Tween20, 0.01% BSA) containing 1.25 nM of Full-length (FL)-PRMT5-MEP50 enzyme complex (recombinant proteins from baculovirus-transfected Sf21 cells: FL-PRMT5; MW=[…] and FL-MEP50; MW=38614) and 1 μL of 150 μM S-(5′-Adenosyl)-L-Methionine Chloride (SAM). Plates were sealed and placed in a 37° C. humidified chamber for a 60 minutes pre-incubation with compound. Subsequently, each reaction was initiated by the addition of 1 μL 1× assay buffer containing 750 nM biotinylated H4R3(Me1) peptide. The final reaction in each well of 10 μL consists of 1.0 nM PRMT5-MEP50, 75 nM biotinylated-peptide, and 15 μM SAM. Methylation reactions were allowed to proceed for 150 minutes in a sealed plate at 37° C. Reactions were immediately quenched by the addition of 1 μL of 5% formic acid. Plates were then frozen and shipped to SAMDITM Tech Inc. to determine the percent conversion from H4R3(Me1) to H4R3(Me2). Dose-response curves were generated by plotting percent effect (% product conversion; Y-axis) vs. Log10 compound concentrations (X-axis). EC50 values were determined by non-linear regression according to models for sigmoidal (4 parameters) dose-response curves.

The next assay deals with T2, PRMT5 (Homo sapiens, UniProt O14744).
T2 construct: endogenous in cells; host or cells: MCF-7
T2 sequence (O14744 whole entry): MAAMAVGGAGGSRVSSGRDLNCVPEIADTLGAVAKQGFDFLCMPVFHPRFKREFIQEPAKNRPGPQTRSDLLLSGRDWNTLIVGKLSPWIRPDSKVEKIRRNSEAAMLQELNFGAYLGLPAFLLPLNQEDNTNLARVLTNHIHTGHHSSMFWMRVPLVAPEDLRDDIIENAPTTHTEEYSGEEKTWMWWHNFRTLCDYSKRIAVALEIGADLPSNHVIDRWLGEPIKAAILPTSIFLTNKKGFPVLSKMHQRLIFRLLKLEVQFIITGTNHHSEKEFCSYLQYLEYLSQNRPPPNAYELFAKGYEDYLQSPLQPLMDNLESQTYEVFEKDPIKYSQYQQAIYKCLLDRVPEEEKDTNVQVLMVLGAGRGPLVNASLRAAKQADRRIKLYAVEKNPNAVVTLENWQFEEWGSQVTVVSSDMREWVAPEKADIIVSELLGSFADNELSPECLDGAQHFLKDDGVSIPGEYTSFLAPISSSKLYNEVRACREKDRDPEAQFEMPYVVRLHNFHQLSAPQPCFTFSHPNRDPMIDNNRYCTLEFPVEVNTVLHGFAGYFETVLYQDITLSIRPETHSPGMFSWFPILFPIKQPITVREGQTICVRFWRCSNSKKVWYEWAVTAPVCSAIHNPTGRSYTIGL
T2 sequence (Q9BQA1 whole entry partner): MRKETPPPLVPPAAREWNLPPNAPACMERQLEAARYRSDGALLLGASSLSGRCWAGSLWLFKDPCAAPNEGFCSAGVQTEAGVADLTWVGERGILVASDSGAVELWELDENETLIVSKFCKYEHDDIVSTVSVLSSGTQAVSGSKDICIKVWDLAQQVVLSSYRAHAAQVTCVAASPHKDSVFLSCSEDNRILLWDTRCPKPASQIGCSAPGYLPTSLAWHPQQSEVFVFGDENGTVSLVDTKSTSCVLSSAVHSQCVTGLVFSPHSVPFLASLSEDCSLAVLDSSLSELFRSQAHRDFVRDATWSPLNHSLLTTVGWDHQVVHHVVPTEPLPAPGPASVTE
In words: PRMT5 Cell Target Engagement (TE) Assay. Particulars: MCF-7 cells, treated for 3 days; symmetrically dimethylated (SDMA) nuclear proteins by high content imaging. Format: cell-based. The text has this: PRMT5 Cell Target Engagement (TE) Assay
The PRMT5 TE assay is a biomarker assay for identifying compounds that inhibit symmetric dimethylation of arginine (SDMA) of PRMT5 substrates. The following substrates have been reported for PRMT5: histone H2A and H4 R3, Histone H3 R2, Histone H3 R8, spliceosome Sm proteins, ribosomal protein RPS10, p53, FEN1, nucleoplasmin, nucleolin, EGFR and EBNA. The assay focuses on detecting symmetrically dimethylated nuclear proteins using high content imaging technology. Detection of the expression of symmetrically dimethylated nuclear proteins is through a mixture of primary rabbit monoclonal antibodies to SDMA (CST 13222), which in turn recognized by an Alexafluor 488 dye-conjugated anti-rabbit IgG secondary antibody. The IN Cell Analyzer 2200 or Opera-Phenix measures nuclear Alexafluor 488 fluorescent dye intensity that is directly related to the level of expression of symmetrically dimethylated nuclear proteins at the single cell level. Nuclear AF488 dye intensities are compared to the mean value for DMSO treated cells (MIN) to report percent of inhibition for each compound-treated well.
In this assay, the cell potency (EC50) of each compound was determined from a ten point (1:3 serial dilution; top compound concentration of 10000 nM) titration curve using the following outlined procedure. Each well of a BD falcon collagen coated black/clear bottom 384-well plate was seeded with 4000 MCF-7 cells in 30 μl media and allowed to attach for 5 h. Media is ATCC-formulated Eagle's Minimum Essential Medium, Catalog No. 30-2003. To make the complete growth medium, the following components were added to the base medium: 0.01 mg/mL human recombinant insulin; fetal bovine serum to a final concentration of 10%. Additional 30 µl of media containing 2× compounds were added to each well. Cells were treated for 3 days in 37° C. CO2 incubator. On day 3, cells were fixed with Cytofix, permeabilized with 0.4% Triton-X-100/Cytofix, and washed with D-PBS without Ca/Mg. Cells were blocked with Licor Odessey blocking reagent for 1 h at room temperature, followed by incubation with anti-SDMA (1:1000) antibody at 4° C. overnight. 1° antibody was removed, followed by three washings with DPBS without Ca/Mg and 0.05% Tween20. Hoechst (5 μg/mL), Cell Mask deep stain (1:2000) and Alexa488-conjugated goat anti-rabbit IgG (2 μg/mL) was added for 1 h at room temperature. A final washing step (three washes) was performed before sealing plate for imaging on In Cell Analyzer 2200 or Opera-Phenix. Images from analyzer were uploaded to Columbus (at WP or BOS) for image analysis. IC50 values were determined by 4 parameters robust fit of percent fluorescence units vs. (Log10) compound concentrations.

T1 sequence (O14744 whole entry): as the sequence (O14744 whole entry) above
T1 sequence (Q9BQA1 whole entry partner): as the sequence (Q9BQA1 whole entry partner) above

As a reminder, the EC50 is the concentration giving half of the maximal effect. `[2H]C1([2H])c2ccccc2CCN1[C@H]1CCN(C(=O)c2cc(NC3CCN(C(C)=O)CC3)ncc2F)C[C@@H]1O` [Example 1b, 1-(4-((4-((3S,4S)-4-(3,4-dihydroisoquinolin-2(1H)-yl-1,1-d2)-3-hydroxypiperidine-1-carbonyl)-5-fluoropyridin-2-yl)amino)piperidin-1-yl)ethan-1-one]: the EC50 in assay [1] turned out to be 0.9 nM; on PRMT5, 2 nM.
Consider `CC(=O)N1CCC(Nc2cc(C(=O)N3CC[C@H](N4CCc5ccccc5C4)[C@@H](O)C3)c(F)cn2)CC1` [Example 1, 1-{4-[(4-{[(3S,4S)-4-(3,4-dihydroisoquinolin-2(1H)-yl)-3-hydroxypiperidin-1-yl]carbonyl}-5-fluoropyridin-2-yl)amino]piperidin-1-yl}ethanone], for which the EC50 stood at 0.9 nM in assay [1] and 6.9 nM at PRMT5.
The like results for `O=C(c1cn2cc(C3CC3)cnc2n1)N1CC[C@H](N2CCc3ccccc3C2)[C@@H](O)C1` [Example 3, (6-cyclopropylimidazo[1,2-a]pyrimidin-2-yl)((3S,4S)-4-(3,4-dihydroisoquinolin-2(1H)-yl)-3-hydroxypiperidin-1-yl)methanone] were, in that order, 1.3 nM and 6.8 nM.
Consider `O=C(c1cn2cc(C3CC3(F)F)cnc2n1)N1CC[C@H](N2CCc3ccccc3C2)[C@@H](O)C1` (stereo partly drawn) [Example 2, (6-(2,2-difluorocyclopropyl)imidazo[1,2-a]pyrimidin-2-yl)((3S,4S)-4-(3,4-dihydroisoquinolin-2(1H)-yl)-3-hydroxypiperidin-1-yl)methanone], for which the concentration for a half-maximal effect (EC50) stood at 1.6 nM in assay [1] and 4.7 nM at PRMT5.
As for `[2H]C1([2H])c2ccccc2CCN1[C@@H]1CCN(C(=O)c2cc(NC3CCN(C(C)=O)CC3)ncc2F)C[C@H]1O` [Example 1c, 1-(4-((4-((3R,4R)-4-(3,4-dihydroisoquinolin-2(1H)-yl-1,1-d2)-3-hydroxypiperidine-1-carbonyl)-5-fluoropyridin-2-yl)amino)piperidin-1-yl)ethan-1-one], on PRMT5, the EC50 was 165 nM.
Consider `CCc1nc2nc(C(=O)N3CC[C@H](N4CCc5ccccc5C4)[C@@H](O)C3)cn2cc1Br` [Example 4, (6-bromo-7-ethylimidazo[1,2-a]pyrimidin-2-yl)((3S,4S)-4-(3,4-dihydroisoquinolin-2(1H)-yl)-3-hydroxypiperidin-1-yl)methanone], for which the concentration for a half-maximal effect (EC50) in assay [1] is 1.5 nM; at PRMT5, 15 nM.
